Active and inactive are the calls of the source.
Legend:
[1] = fungal growth arrest, C. neoformans – Alamar Blue, cherry-picks, dose response (AID 686998); format: functional, organism-based
[2] = biological target: Cytochrome P450 3A4 (Homo sapiens, UniProt P08684);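 also: CYP3A4 tested as one member of a cytochrome P450 panel screen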
[3] = biological target: Cytochrome P450 2C19 (Homo sapiens, UniProt P33261); assay: Cytochrome panel assay with activity outcomes. Panel member name: p450-cyp2c19 Compounds with AC50 equal or less than 10 uM are considered active; format: functional; conditions: read-out: AC50
[4] = biological target: T1, Beta-2 adrenergic receptor (Homo sapiens, UniProt P07550); assay: ADRB2 activation measured by internalization – cell-based, FAP fluorogen, flow cytometry, cherry pick 1, dose response (AID 588763); format: functional
[5] = biological target: T1, Beta-2 adrenergic receptor; assay: Dose response for HTS for Beta-2AR agonists via FAP method from Powderset3.; format: functional
[6] = biological target: FAD-linked sulfhydryl oxidase ALR (Homo sapiens, UniProt P55789); assay: ALR-catalysed DTT oxidation blockers – biochemical, H2O2 detection, luminescence, cherry-pick, dose response (AID 493248)
[7] = biological target: T2, Beta-lactamase (Salmonella choleraesuis (strain SC-B67), UniProt Q5J463); assay: Epi-absorbance-based counterscreen for selective VIM-2 inhibitors: dose response biochemical high throughput screening assay to identify inhibitors of TEM-1 serine-beta-lactamase.
[8] = biological target: T3, Beta Lactamase (Pseudomonas aeruginosa, UniProt Q932Y6); assay: concentration-dependent VIM-2 enzyme inhibition – biochemical, epi-absorbance readout, selective inhibitors, dose response (AID 1919)
[9] = biological target: T3, Beta Lactamase; assay: VIM-2 CCF2 hydrolysis inhibition, assay artifact filter – biochemical, FRET readout, CCF2 substrate, artefact control for selective VIM-2 inhibitor project, dose response (AID 1926)
[10] = biological target: T4, Beta-lactamase (Pseudomonas aeruginosa, UniProt Q79MP6); assay: […] counterscreen for selective VIM-2 inhibitors: dose response biochemical high throughput screening assay to identify inhibitors of IMP-1 metallo-beta-lactamase.
[11] = biological target: T4, Beta-lactamase; assay: inhibition of IMP-1 beta-lactamase activity – biochemical, epi-absorbance, selectivity assay for VIM-2 inhibitor project, dose response (AID 1920)
[12] = biological target: T5, Protein RecA (Mycobacterium tuberculosis, UniProt P9WHJ3); assay: Fluorescence Cell-Free Homogeneous Dose Retest to Identify Inhibitors of RecA-Intein Splicing Activity. [Related pubchem assays (depositor defined):AID2097, AID2223, AID489010, AID492950]; format: functional
T5 sequence (P9WHJ3 whole entry): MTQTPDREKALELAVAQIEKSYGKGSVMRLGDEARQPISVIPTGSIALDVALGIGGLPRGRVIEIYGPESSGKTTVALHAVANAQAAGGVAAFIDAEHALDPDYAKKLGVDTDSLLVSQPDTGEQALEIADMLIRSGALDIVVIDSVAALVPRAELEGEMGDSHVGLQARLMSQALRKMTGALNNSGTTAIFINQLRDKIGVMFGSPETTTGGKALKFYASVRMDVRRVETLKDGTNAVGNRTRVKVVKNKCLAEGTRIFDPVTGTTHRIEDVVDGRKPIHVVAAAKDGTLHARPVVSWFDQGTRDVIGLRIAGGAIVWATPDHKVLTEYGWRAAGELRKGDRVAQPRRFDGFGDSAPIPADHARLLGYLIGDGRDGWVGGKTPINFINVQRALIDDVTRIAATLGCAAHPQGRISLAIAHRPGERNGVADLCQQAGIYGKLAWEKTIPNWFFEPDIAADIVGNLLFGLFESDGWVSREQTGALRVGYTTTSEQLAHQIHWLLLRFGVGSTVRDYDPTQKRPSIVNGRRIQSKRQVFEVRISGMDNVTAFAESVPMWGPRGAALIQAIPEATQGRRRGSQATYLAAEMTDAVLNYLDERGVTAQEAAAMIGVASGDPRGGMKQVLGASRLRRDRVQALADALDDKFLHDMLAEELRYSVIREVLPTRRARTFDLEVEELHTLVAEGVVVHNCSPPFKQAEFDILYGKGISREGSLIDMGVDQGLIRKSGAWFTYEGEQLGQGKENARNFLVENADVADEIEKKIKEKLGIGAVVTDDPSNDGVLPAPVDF

[13] = biological target: T6, Sentrin-specific protease 8 (Homo sapiens, UniProt Q96LD8); format: functional
T6 sequence (Q96LD8 whole entry): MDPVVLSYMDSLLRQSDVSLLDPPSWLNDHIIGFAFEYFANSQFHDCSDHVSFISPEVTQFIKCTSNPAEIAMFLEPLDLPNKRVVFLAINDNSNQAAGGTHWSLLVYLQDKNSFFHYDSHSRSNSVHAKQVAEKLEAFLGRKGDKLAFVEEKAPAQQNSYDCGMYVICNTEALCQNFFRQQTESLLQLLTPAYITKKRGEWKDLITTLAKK

[14] = biological target: T6, Sentrin-specific protease 8; format: functional; remark: listed apart in the source
[15] = biological target: T7, Replicative DNA helicase DnaB (Mycobacterium tuberculosis, UniProt P9WMR3); assay: DnaB intein splicing inhibitors, dose response, biochemical, cell-free fluorescence (AID 449749); format: functional
T7 sequence (P9WMR3 whole entry): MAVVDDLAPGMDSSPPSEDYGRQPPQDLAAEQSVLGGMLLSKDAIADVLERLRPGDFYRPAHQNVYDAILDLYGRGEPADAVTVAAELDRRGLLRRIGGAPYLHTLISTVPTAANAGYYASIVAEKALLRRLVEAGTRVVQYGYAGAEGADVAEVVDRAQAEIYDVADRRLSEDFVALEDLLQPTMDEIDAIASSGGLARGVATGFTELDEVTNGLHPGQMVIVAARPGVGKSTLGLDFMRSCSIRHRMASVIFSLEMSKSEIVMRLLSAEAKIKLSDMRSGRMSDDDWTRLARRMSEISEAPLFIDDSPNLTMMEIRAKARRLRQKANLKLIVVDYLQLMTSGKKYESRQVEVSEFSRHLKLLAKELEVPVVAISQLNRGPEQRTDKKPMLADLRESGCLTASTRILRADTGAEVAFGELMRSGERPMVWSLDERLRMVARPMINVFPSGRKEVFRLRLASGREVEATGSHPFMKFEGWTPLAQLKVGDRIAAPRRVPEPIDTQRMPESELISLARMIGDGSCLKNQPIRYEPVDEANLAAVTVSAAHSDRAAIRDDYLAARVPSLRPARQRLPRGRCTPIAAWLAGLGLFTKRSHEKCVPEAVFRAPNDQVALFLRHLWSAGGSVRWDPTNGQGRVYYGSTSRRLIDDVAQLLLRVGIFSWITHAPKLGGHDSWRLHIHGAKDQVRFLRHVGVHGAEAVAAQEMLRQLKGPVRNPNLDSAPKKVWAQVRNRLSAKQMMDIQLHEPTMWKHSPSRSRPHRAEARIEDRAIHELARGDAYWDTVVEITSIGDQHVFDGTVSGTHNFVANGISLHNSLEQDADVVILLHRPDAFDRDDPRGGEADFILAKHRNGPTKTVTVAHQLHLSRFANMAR

[16] = biological target: Arf-GAP with SH3 domain, ANK repeat and PH domain-containing protein 1 (Homo sapiens, UniProt Q9ULH1); format: functional;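 also: biochemical fluorescence polarization dose–response screen measuring inhibition of ASAP1; ASAP1 GAP domain stimulating GTP hydrolysis by truncated human ARF1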
[17] = intracellular Trypanosoma cruzi inhibitors in host cells – cell-based, plate reader, cherry-pick samples, set 3, dose response (AID 651818); format: functional;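 also: compounds incubated with infected cells for about four days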
[18] = mouse fibroblast viability loss – cell-based, cherry-pick samples, set 2, cytotoxicity control for T. cruzi growth inhibitor project, dose response (AID 651817); format: functional; conditions: NIH3T3
[19] = biological target: Scavenger receptor class B member 1 (Mus musculus, UniProt Q61009); assay: mouse SR-BI DiI-HDL transfer blockers – ldlA[mSR-BI] CHO cells, fluorescence plate reader, dry powder, set 9, dose response (AID 623880); format: functional, cell-based
[20] = cell viability loss, ATP luminescence – CellTiter-Glo, 24 h, powder samples, set 7, cytotoxicity control for SR-BI HDL uptake inhibitor project, dose response (AID 624026); format: functional, cell-based
[21] = biological target: T2, Beta-lactamase
[22] = biological target: T4, Beta-lactamase
[23] = activation of miR-122 Renilla sensor silencing – cell-based, Huh7 psiCHECK-miR122, Renilla luciferase, cherry-picked, dose response (AID 651956); format: functional;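 also: huh7 hepatoma cells stably carrying a psiCHECK-2 miR-122 sensor plasmid; renilla luciferase signal reporting endogenous miR-122 activity after 48 h compound exposure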
[24] = general mammalian cell viability loss – activator set, cherry-pick, cytotoxicity control for miR-122 modulator project, dose response (AID 720690); format: functional, cell-based;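 also: HEK293T human cells scored for general mammalian cytotoxicity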
[25] = general mammalian cell viability loss – inhibitor set, cherry-pick, set 2, cytotoxicity control for miR-122 modulator project, dose response (AID 720697); format: functional, cell-based
[26] = test system: A549; assay: viability loss in A549 cells – cell-based, plate reader, cherry-pick samples, cytotoxicity control, dose response (AID 687028); format: functional; conditions: Homo sapiens
[27] = HEK-293T viability loss after treatment – luminescence, T-cell screen hits, cytotoxicity control for TCR NF-kB inhibitor project, dose response (AID 489026); format: functional, cell-based;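 also: cells exposed to compound about 14 hours before the viability readout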
[28] = test system: Vero; assay: viability loss in Vero cells – cell-based, plate reader, cherry-pick samples, cytotoxicity control, dose response (AID 687020); format: functional; conditions: Chlorocebus sabaeus
[29] = biological target: Dual specificity protein phosphatase 3 (Homo sapiens, UniProt P51452); assay: VHR phosphatase inhibition, dose response, selectivity assay for STEP inhibitor project, biochemical (AID 602374); format: functional; conditions: read-out: IC50_Mean
[30] = biological target: Glucose-6-phosphate 1-dehydrogenase (Homo sapiens, UniProt P11413); assay: inhibition of Homo sapiens G6PD, dose series – biochemical, fluorescence, selectivity assay for P. falciparum G6PD inhibitor project, dose response (AID 504792); format: functional
[31] = biological target: T8, Tyrosine-protein phosphatase non-receptor type 22 (Homo sapiens, UniProt Q9Y2R2); assay: lymphoid phosphatase LYP inhibitors – biochemical, selectivity assay for STEP inhibitor project, dose response (AID 624241); format: functional
T8 sequence (Q9Y2R2 whole entry): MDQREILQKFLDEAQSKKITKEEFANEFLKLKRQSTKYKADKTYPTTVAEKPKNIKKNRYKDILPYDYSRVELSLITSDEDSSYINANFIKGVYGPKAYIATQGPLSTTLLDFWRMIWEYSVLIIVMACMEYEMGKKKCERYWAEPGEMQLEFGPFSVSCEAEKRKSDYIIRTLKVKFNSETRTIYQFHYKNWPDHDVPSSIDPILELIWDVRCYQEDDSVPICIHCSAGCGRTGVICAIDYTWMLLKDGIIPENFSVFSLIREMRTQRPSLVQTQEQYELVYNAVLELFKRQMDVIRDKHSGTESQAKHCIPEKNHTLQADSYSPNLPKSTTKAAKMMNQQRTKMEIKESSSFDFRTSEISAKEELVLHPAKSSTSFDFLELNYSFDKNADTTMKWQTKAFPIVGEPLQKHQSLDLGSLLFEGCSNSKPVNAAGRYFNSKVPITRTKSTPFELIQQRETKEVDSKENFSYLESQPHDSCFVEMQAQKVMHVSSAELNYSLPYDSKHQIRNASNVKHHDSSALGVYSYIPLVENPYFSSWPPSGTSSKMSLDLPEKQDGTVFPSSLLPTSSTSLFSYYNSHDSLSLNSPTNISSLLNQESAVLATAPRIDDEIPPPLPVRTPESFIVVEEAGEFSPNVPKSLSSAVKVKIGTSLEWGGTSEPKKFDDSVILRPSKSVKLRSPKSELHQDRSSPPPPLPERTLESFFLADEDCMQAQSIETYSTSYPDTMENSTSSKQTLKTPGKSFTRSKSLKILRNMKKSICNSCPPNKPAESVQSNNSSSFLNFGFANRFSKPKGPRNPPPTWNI

[32] = biological target: Tyrosine-protein phosphatase non-receptor type 5 (Homo sapiens, UniProt P54829); assay: PTPN5 enzyme inhibition – biochemical, fluorescence intensity, uHTS hits, confirmation (AID 602372); format: functional; conditions: read-out: IC50_Mean
[33] = biological target: Tyrosine-protein phosphatase non-receptor type 11 (Homo sapiens, UniProt Q06124); assay: PTPN11 enzyme inhibitors – biochemical, selectivity assay for STEP inhibitor project, dose response (AID 602367); format: functional; conditions: read-out: IC50_Mean
Sequence of Tyrosine-protein phosphatase non-receptor type 11 (Q06124 whole entry): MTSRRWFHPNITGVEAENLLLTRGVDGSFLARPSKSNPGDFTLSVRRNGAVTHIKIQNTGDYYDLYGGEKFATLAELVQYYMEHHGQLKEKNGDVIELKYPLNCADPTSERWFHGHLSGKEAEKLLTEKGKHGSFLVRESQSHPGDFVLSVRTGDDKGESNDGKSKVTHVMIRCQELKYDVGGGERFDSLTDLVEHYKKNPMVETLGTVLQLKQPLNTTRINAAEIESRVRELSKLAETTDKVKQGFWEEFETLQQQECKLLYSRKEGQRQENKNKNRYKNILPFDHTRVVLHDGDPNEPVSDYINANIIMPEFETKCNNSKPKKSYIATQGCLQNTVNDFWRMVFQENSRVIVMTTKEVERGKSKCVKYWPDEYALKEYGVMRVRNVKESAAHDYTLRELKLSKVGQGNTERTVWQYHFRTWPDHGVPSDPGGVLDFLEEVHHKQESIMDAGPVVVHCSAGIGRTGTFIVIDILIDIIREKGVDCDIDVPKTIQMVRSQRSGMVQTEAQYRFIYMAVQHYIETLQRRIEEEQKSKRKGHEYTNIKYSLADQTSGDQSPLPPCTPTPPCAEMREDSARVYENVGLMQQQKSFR

T4 sequence (Q79MP6 whole entry): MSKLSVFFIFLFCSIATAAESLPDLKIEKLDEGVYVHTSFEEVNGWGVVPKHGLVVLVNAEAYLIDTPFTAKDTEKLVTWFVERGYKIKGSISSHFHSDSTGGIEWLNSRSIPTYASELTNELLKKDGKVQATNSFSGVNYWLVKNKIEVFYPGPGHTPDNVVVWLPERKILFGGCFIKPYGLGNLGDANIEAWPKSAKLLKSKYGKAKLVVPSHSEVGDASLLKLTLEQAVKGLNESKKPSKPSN
T3 sequence (Q932Y6 whole entry): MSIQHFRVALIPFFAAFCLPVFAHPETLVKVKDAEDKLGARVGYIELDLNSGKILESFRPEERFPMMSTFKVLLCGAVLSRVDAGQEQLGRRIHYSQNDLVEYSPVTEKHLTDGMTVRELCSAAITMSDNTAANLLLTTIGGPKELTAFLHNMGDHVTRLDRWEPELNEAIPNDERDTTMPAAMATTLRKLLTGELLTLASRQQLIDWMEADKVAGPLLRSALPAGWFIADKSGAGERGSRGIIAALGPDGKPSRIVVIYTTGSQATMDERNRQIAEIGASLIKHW
T1 sequence (P07550 whole entry): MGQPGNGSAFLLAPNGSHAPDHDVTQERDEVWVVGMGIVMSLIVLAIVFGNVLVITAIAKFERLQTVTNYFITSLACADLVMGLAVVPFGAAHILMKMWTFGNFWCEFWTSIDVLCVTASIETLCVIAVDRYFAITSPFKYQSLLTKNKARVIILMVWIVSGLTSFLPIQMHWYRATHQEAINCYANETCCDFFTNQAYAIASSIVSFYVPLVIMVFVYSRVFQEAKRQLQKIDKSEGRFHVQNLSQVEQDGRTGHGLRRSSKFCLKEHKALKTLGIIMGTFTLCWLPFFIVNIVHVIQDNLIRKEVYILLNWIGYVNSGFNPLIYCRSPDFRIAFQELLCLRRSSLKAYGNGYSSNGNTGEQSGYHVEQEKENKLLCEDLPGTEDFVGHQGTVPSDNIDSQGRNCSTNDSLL
T2 sequence (Q5J463 whole entry): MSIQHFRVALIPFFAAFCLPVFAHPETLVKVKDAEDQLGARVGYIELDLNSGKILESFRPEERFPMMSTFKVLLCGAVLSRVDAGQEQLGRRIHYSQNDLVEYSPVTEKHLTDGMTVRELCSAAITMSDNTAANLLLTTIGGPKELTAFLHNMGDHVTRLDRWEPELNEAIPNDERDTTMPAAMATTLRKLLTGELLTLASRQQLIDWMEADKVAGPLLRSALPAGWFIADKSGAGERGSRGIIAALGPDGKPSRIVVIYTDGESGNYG
Sequence of Dual specificity protein phosphatase 3 (P51452 whole entry): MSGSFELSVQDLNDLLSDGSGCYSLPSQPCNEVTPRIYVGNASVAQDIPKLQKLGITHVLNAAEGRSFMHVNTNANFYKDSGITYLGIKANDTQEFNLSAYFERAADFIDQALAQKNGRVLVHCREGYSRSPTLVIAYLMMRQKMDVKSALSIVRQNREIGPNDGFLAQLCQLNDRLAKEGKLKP
Sequence of FAD-linked sulfhydryl oxidase ALR (P55789 whole entry): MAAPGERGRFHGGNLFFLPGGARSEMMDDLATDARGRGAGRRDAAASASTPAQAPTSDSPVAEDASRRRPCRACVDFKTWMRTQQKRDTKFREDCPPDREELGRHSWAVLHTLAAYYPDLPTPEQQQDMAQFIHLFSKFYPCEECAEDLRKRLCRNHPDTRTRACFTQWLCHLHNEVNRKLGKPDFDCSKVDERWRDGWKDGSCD
Sequence of Arf-GAP with SH3 domain, ANK repeat and PH domain-containing protein 1 (Q9ULH1 whole entry, the tested form may be a part): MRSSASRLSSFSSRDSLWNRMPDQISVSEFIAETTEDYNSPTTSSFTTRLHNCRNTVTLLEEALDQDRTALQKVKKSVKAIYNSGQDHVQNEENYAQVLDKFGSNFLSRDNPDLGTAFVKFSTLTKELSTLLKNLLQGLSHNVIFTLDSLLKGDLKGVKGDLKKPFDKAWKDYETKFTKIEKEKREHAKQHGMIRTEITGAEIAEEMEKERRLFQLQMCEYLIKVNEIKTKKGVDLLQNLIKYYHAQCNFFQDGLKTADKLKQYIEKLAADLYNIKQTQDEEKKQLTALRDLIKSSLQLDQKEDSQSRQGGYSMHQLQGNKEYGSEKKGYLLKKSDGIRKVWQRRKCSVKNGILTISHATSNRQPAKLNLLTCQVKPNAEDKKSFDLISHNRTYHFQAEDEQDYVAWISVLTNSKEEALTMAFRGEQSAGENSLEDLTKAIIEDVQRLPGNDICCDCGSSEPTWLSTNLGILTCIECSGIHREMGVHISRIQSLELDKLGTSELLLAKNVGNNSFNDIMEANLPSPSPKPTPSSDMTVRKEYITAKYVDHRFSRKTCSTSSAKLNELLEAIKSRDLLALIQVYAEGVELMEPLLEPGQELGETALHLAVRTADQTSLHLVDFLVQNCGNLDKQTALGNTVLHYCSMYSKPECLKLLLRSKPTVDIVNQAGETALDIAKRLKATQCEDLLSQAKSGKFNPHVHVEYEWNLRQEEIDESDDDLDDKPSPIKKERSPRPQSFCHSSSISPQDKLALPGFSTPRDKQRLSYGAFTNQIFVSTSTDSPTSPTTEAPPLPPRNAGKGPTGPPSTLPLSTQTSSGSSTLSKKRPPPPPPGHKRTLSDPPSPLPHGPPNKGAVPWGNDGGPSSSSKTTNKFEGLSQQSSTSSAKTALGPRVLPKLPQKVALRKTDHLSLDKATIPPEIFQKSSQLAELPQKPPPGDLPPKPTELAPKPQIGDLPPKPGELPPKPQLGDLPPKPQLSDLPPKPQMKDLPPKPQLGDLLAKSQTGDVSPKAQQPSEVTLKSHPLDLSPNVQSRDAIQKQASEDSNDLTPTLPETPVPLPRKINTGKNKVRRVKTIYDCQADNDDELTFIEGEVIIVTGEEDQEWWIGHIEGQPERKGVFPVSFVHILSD
Sequence of Glucose-6-phosphate 1-dehydrogenase (P11413 whole entry): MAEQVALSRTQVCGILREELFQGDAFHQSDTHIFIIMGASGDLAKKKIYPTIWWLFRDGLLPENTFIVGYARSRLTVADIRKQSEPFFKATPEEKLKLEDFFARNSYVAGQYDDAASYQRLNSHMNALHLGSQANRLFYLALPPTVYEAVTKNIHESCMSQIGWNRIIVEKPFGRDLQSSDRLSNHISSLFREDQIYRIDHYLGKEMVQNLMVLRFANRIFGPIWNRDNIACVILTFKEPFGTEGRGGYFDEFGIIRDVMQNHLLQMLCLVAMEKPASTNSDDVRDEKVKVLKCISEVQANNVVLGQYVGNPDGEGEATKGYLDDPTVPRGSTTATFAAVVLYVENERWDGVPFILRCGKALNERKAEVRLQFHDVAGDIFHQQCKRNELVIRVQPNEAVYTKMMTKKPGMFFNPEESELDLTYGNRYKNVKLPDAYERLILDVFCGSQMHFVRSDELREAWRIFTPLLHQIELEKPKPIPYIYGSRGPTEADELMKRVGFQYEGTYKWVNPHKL
Sequence of Tyrosine-protein phosphatase non-receptor type 5 (P54829 whole entry): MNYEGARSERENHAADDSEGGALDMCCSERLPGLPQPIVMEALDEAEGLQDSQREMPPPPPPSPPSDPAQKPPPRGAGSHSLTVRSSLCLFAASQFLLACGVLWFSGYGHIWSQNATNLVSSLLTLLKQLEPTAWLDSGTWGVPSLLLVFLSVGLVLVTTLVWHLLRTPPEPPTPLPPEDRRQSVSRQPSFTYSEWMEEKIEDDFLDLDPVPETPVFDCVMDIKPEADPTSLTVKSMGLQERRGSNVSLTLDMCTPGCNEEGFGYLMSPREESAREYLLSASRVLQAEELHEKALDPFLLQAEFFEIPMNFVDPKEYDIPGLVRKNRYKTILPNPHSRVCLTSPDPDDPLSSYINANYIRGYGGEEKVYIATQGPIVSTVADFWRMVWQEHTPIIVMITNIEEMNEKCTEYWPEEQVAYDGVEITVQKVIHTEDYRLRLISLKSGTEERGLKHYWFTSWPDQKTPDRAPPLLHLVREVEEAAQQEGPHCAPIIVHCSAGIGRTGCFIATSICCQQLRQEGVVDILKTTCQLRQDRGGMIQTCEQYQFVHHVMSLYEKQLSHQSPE
Sequence of Cytochrome P450 2C19 (P33261 whole entry): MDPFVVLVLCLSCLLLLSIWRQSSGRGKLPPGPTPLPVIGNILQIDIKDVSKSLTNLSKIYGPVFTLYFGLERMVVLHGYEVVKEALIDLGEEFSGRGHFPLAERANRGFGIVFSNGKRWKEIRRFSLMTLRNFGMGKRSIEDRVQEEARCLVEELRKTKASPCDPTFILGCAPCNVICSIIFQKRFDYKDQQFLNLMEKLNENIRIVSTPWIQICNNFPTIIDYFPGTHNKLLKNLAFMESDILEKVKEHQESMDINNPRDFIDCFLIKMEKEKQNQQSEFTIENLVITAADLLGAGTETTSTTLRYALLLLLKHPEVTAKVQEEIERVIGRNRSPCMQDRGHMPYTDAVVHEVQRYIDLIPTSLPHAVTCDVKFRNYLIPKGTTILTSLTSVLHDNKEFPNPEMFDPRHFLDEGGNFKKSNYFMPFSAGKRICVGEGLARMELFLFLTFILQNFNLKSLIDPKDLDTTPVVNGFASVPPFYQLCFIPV

SMILES: CCC(=O)N1CCCC1(C)C(=O)Nc1ccc(C)c(C)c1 (stereo not drawn)
- AC50 [1]: 93.7 µM (active)

SMILES: Cc1ccc(Cn2ccc(NC(=O)c3cc4nc(-c5ccco5)cc(C(F)(F)F)n4n3)n2)cc1
- AC50 [2]: 2.82 µM (inconclusive)
- AC50 [3]: 14.1 µM (inconclusive)
- EC50 [4]: 0.22 µM (active)
- EC50 [5]: 0.00643 µM (active)

SMILES: O=[N+]([O-])c1ccccc1/C=C/C=N/n1c(S)nnc1-c1ccccc1F
- AC50 [6]: 1.89 µM (active)
- IC50 [7]: > 59.6 µM (inactive)
- IC50 [8]: > 59.6 µM (inactive)
- IC50 [9]: > 6.63 µM (active)
- IC50 [10]: > 59.6 µM (inactive)
- IC50 [11]: > 59.6 µM (inactive)

SMILES: CC1=NN(c2cccc(Cl)c2)C(=O)C1
- EC50 [12]: 54.5 µM (active)
- IC50 [13]: 13.4 µM (active)
- IC50 [14]: 8.2 µM (active)
- AC50 [15]: 75.7 µM (active)

SMILES: O=C(COC(=O)c1ccc2c(c1)C(=O)N(c1cccc3ncccc13)C2=O)c1ccc(Cl)cc1
- IC50 [16]: 1.97 µM (active)

SMILES: C[C@@H]1CN([C@H](C)CO)C(=O)c2cccc(NC(=O)Nc3ccc(C(F)(F)F)cc3)c2O[C@H]1CN(C)Cc1ccc(Cl)c(Cl)c1
- AC50 [17]: 1.28 µM (active)
- AC50 [18]: 15.7 µM (active)

SMILES: C[C@@H]1CN([C@H](C)CO)C(=O)c2cc(NC(=O)Nc3ccc(F)cc3)ccc2O[C@H]1CN(C)S(=O)(=O)c1ccc(Cl)cc1
- AC50 [19]: 0.113 µM (active)
- AC50 [20]: > 70 µM (inactive)

SMILES: COC(=O)c1sccc1NC(=O)c1ccc(C#N)cc1
- IC50 [21]: > 59.6 µM (inactive)
- IC50 [22]: > 59.6 µM (inactive)

SMILES: NC(Cc1ccc(C(F)(F)F)cc1)c1csc(Nc2nncc3ccccc23)n1 (stereo not drawn)
- AC50 [23]: 19.4 µM (active)
- AC50 [24]: 8.02 µM (active)
- AC50 [25]: 2.52 µM (active)

SMILES: COc1ccc(OC)c(-c2nnc3n2N=C(c2ccc(OC)c(OC)c2)CS3)c1
- AC50 [26]: 4.83 µM (active)
- IC50 [27]: > 80 µM (inactive)
- AC50 [28]: 23.2 µM (active)

SMILES: Cc1cc(C)c(NC(S)=NCC2CCN(C(C)c3ccccc3)C2)c(C)c1 (stereo not drawn)
- IC50 [29]: 0.343 µM (active)
- IC50 [30]: > 80 µM (inactive)
- IC50 [31]: 48.4 µM (inactive)
- IC50 [32]: 6.09 µM (active)
- IC50 [33]: 0.934 µM (active)
